Data from PubChem BioAssay (NCI).
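Growth conditions: 96-well plates. Treatment: test compound, 48 hours, 5 concentrations. Analysis: linear interpolation between bracketing concentrations; unreached endpoints set to highest concentration. At the GI50, growth is halved. TGI: concentration producing complete growth inhibition.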

Experiments:
Assay in all cases: inhibition of tumour cell growth, NCI panel, 48 h
[1] = system: DU-145 prostate
[2] = system: UO-31 renal
[3] = system: U251 CNS
[4] = system: NCI-H226 lung
[5] = system: SF-539 CNS
[6] = system: HOP-62 NSCLC
[7] = system: NCI/ADR-RES ovarian
[8] = system: HCT-15 colon
[9] = system: TK-10 renal
[10] = system: K-562 leukemia

Structure (SMILES)	GI50 [1]	TGI [1]	GI50 [2]	TGI [2]	GI50 [3]	TGI [3]	GI50 [4]	TGI [4]	GI50 [5]	TGI [5]	GI50 [6]	TGI [6]	GI50 [7]	TGI [7]	GI50 [8]	TGI [8]	GI50 [9]	TGI [9]	TGI [10]	GI50 [10]
COc1cc(CNC(=O)CCSc2nc3ccccc3c(=O)n2Cc2cc(OC)c(OC)c(OC)c2)cc(OC)c1OC	7.27 µM	> 100 µM	5.9 µM	> 100 µM	5.34 µM	59.5 µM	14.6 µM	> 100 µM	2.86 µM	10.7 µM	4.36 µM	28.7 µM	3.59 µM	30.9 µM	2.47 µM	> 100 µM	11 µM	44.4 µM		
CCCCN(CCCC)C(=O)C(=O)CC(=O)/C=C/c1ccccc1				> 100 µM		> 100 µM		> 100 µM		> 100 µM		> 100 µM				> 100 µM		> 100 µM	> 100 µM	
NC(=S)N/N=C\c1nccc2c(C(F)(F)C(F)(F)C(F)(F)F)cccc12	0.11 µM	2.92 µM	0.09 µM	0.892 µM	0.0569 µM	1.25 µM	0.162 µM	1.12 µM	0.193 µM	0.772 µM	0.0752 µM	1.25 µM	0.167 µM	1.65 µM	0.0488 µM	> 100 µM	0.078 µM	2.3 µM	> 100 µM	0.346 µM
COc1cc(CC2CC(c3ccc4c(c3)OCO4)OC2=O)cc(OC)c1OC (stereo unspecified)		> 100 µM		82.4 µM		> 100 µM		> 100 µM		> 100 µM		> 100 µM		> 100 µM		> 100 µM		> 100 µM	> 100 µM	
Cc1cc(Cl)ccc1NC(=O)NC(C)(C)COC(=O)Nc1cccc(Cl)c1	11.2 µM	> 100 µM	7.11 µM	80.7 µM	4.56 µM	19.3 µM	13.6 µM	> 100 µM	9.4 µM	> 100 µM	14.1 µM	50.5 µM	4.12 µM	> 100 µM	2.48 µM	13.1 µM	8.86 µM	> 100 µM	> 100 µM	5.09 µM
Cc1ccc([N+](=O)[O-])cc1NC(=O)C(=O)C1CCC2=C(Sc3ccccc3N2)C1=O (stereo unspecified)		> 100 µM		> 100 µM		> 100 µM		> 100 µM		> 100 µM		> 100 µM		> 100 µM		> 100 µM		> 100 µM		
CC(=O)OCC(OC(C)=O)C(OC(C)=O)C(OC(C)=O)C(=O)CNn1c(-c2ccccc2Cl)nc2ccc(Br)cc2c1=O (stereo unspecified)				> 100 µM		> 100 µM				> 100 µM		> 100 µM				> 100 µM			> 100 µM	
C=C(C)[C@@H]1CC[C@]2(C)[C@H](CC=C3[C@@H]4[C@H](C)[C@@H](C)CC[C@]4(CO)CC[C@]32C)[C@@]1(C)CCCN	1.21 µM	3.01 µM	0.823 µM	2.24 µM			6.72 µM	18.3 µM	0.945 µM	1.73 µM	1.08 µM	2.36 µM	0.986 µM	2.17 µM	0.839 µM	1.76 µM	2.21 µM	9.75 µM	3.63 µM	1.22 µM
C/C=C/C(=O)[O-].N.N.N.N.N.[Co+3].[O-][Cl+3]([O-])([O-])[O-]			> 100 µM	> 100 µM	> 100 µM	> 100 µM			> 100 µM	> 100 µM	> 100 µM	> 100 µM			> 100 µM	> 100 µM	> 100 µM	> 100 µM	> 100 µM	> 100 µM
COC(=O)C12C3C4C1C1C2C3C41C(=O)N(C(C)C)C(C)C (stereo unspecified)				> 100 µM		> 100 µM		> 100 µM		> 100 µM		> 100 µM				> 100 µM		> 100 µM	> 100 µM	
O=C(O)Cc1cc(=O)[nH]c2c1C(=O)CCC2				> 100 µM		> 100 µM		> 100 µM								> 100 µM		> 100 µM	> 100 µM	
CN/N=C(\C(=O)Nc1ccc([N+](=O)[O-])cc1[N+](=O)[O-])C1NC(=O)NC1=O (stereo unspecified)				> 100 µM		96.1 µM		> 100 µM		> 100 µM		> 100 µM				> 100 µM		> 100 µM	> 100 µM	
COc1cc(/C=C\c2cc(OC)c(OC)c(OC)c2)cc(NS(=O)(=O)c2cccc(Cl)c2)c1OC	0.0676 µM	> 100 µM	0.0937 µM	> 100 µM	0.0482 µM	> 100 µM	0.311 µM	> 100 µM			3.16 µM	> 100 µM			0.146 µM	> 100 µM	2.01 µM	> 100 µM	> 100 µM	0.0383 µM
Cc1ccc(SCC(O)=C2C(=O)CCCC2=O)cc1				> 100 µM		> 100 µM		> 100 µM		> 100 µM		> 100 µM				> 100 µM		> 100 µM	> 100 µM	
N=C1C(c2nc(-c3ccc(Br)cc3)cs2)=C(O)CN1CC1CCCO1 (stereo unspecified)			> 100 µM	> 100 µM	> 100 µM	> 100 µM	> 100 µM	> 100 µM	> 100 µM	> 100 µM	> 100 µM	> 100 µM	> 100 µM	> 100 µM	> 100 µM	> 100 µM	> 100 µM	> 100 µM	> 100 µM	> 100 µM
O=C(O)c1oc2cccc3c2c1CCC3				> 100 µM		> 100 µM				> 100 µM		> 100 µM				> 100 µM		> 100 µM	> 100 µM	
c1ccc(COc2cccc3cccnc23)cc1				> 100 µM				> 100 µM		> 100 µM		> 100 µM						> 100 µM	> 100 µM	
Cc1cccc(O)c(=O)c1				> 100 µM		> 100 µM		29.3 µM		> 100 µM		> 100 µM				> 100 µM		> 100 µM		
COC(=O)/C(=N/O)C(C(=O)OC)C(=O)C(=O)Nc1c(Cl)cc(C)cc1S(=O)(=O)O (stereo unspecified)				> 100 µM		> 100 µM		> 100 µM		> 100 µM		> 100 µM				> 100 µM		> 100 µM	> 100 µM	
Cn1c(O)c(N=NC(N)=S)c2ccccc21	53.7 µM	> 100 µM			46.7 µM	> 100 µM	> 100 µM	> 100 µM	> 100 µM	> 100 µM	33.5 µM	> 100 µM	47.4 µM	> 100 µM	44.6 µM	> 100 µM	> 100 µM	> 100 µM	> 100 µM	95.2 µM
CC(C)=CCC/C(C)=C/[C@H]1OC(=O)CC12C[C@H](O)C=CC2=O (stereo partly specified)	0.529 µM	2.18 µM	1.96 µM		0.752 µM	2.03 µM			0.421 µM	1.26 µM	0.856 µM	2.43 µM	0.553 µM	2.47 µM	0.509 µM	> 100 µM	1.31 µM	2.93 µM	> 100 µM	0.363 µM

Structure (SMILES)	GI50 [1]	TGI [1]	GI50 [2]	TGI [2]	GI50 [3]	TGI [3]	GI50 [4]	TGI [4]	GI50 [5]	TGI [5]	GI50 [6]	TGI [6]	GI50 [7]	TGI [7]	GI50 [8]	TGI [8]	GI50 [9]	TGI [9]	TGI [10]	GI50 [10]
COc1cc(C2(C)SCCCS2)c(I)c(OC)c1OC				> 100 µM		> 100 µM		> 100 µM		> 100 µM		> 100 µM				> 100 µM		> 100 µM	> 100 µM	
O=c1cccccc1NCCNc1cccccc1=O				> 100 µM		> 100 µM		> 100 µM		> 100 µM		> 100 µM				> 100 µM			> 100 µM	
O=C1OC(c2ccccc2)=N/C1=C/N1CCCC1C(=O)O (stereo unspecified)				> 100 µM		> 100 µM		> 100 µM		> 100 µM		> 100 µM				> 100 µM		> 100 µM	> 100 µM	
O=C(/C=C/c1ccccc1)CCc1c(O)c2ccccc2oc1=O		> 100 µM		> 100 µM		> 100 µM		> 100 µM		> 100 µM				> 100 µM		> 100 µM			> 100 µM	
C[C@@H](c1ccccc1)N(CC#N)C1CCC[C@H]1O (stereo partly specified)				> 100 µM		> 100 µM		> 100 µM		> 100 µM		> 100 µM				> 100 µM		> 100 µM	> 100 µM	
[N-]=[N+]=Nc1c(Br)c(=O)[nH]c(=O)n1COCCO				> 100 µM		> 100 µM				> 100 µM		> 100 µM						> 100 µM	> 100 µM	
O=C1C2=C(c3ccccc31)C(c1ccc(F)cc1)N1C(=O)CCSC1=N2 (stereo unspecified)				> 100 µM		> 100 µM		> 100 µM		> 100 µM		> 100 µM				> 100 µM		> 100 µM	> 100 µM	
O=C(Nc1ccccc1C(=O)O)C(=O)C(C(=O)c1ccccc1-c1ccccc1)C1OC(=O)c2ccccc21 (stereo unspecified)				32.5 µM		28.9 µM		29.3 µM		35.8 µM		37.8 µM				30.6 µM		29.6 µM	> 100 µM	
CCCCCCCCCCCCCCC(O)C1CCC(C(O)CCC(O)CCCCCC(O)CC2=CC(C)OC2=O)O1 (stereo unspecified)				6.78 µM		20.9 µM		7.27 µM		17.8 µM		7.77 µM				5.25 µM		17.9 µM	3.68 µM	
C=Cc1cnc([N+](=O)[O-])n1C		> 100 µM		> 100 µM		> 100 µM		> 100 µM		> 100 µM		> 100 µM		> 100 µM		> 100 µM		> 100 µM		
CC(=O)NS(=O)(=O)c1ccc(-n2nc(-c3ccccc3)cc2C2=CC(=O)C=CC2=O)cc1			> 100 µM	> 100 µM	> 100 µM	> 100 µM	> 100 µM	> 100 µM			> 100 µM	> 100 µM			> 100 µM	> 100 µM	75.4 µM	> 100 µM	> 100 µM	57 µM
Cc1cc(Cl)ccc1NC(=O)CCCC(=O)C(C(=O)c1ccccc1)c1ccccc1 (stereo unspecified)						> 100 µM						> 100 µM				> 100 µM			> 100 µM	
COc1cc2c3c(c1OC)Oc1ccc(cc1)CC1c4c(cc(OC)c(OC)c4Oc4ccc(cc4)CC3N(C)CC2)CCN1C (stereo unspecified)				31.4 µM		30.8 µM		55.5 µM		28 µM		61.4 µM						46.1 µM	35.5 µM	
N[C@H](C(=O)O)[C@@H](Cl)CC(=O)O				> 100 µM		> 100 µM		> 100 µM		> 100 µM		> 100 µM				> 100 µM		> 100 µM	> 100 µM	
Cc1cc(O)c2c(c1)C(=O)C(c1c(C)cc3c(c1O)C(=O)C1OC1C3=O)=CC2=O (stereo unspecified)		> 47.3 µM		3.77 µM		20.6 µM		32.8 µM		10.2 µM		26.3 µM		> 23.1 µM		3.05 µM		3.36 µM		
CNC(C)Cc1ccc(O)cc1 (stereo unspecified)				> 100 µM		> 100 µM		> 100 µM		> 100 µM		> 100 µM				> 100 µM		> 100 µM	> 100 µM	
N#Cc1ccc2c(c1)C(=O)c1c-2n(CCCN=[N+]=[N-])c(=O)c2cc([N+](=O)[O-])ccc12	7.16 µM	> 50 µM	13.1 µM	> 50 µM	4.49 µM	> 50 µM	40 µM	> 50 µM	> 50 µM	> 50 µM	15 µM	> 50 µM	> 50 µM	> 50 µM	> 50 µM	> 50 µM	> 50 µM	> 50 µM		
CCOC(=O)NC(=O)c1cn(C2OC(CO)C(O)C2O)c(=O)[nH]c1=O (stereo unspecified)				> 100 µM		> 100 µM		> 100 µM		> 100 µM		> 100 µM				> 100 µM			> 100 µM	
CCC1(CC)C(=O)[N-]C(=O)[N-]C1=O.[Au+].[Au+].c1ccc([PH+](c2ccccc2)c2ccccc2)cc1.c1ccc([PH+](c2ccccc2)c2ccccc2)cc1			1.65 µM	3.04 µM	1.16 µM	2.65 µM											1.79 µM	3.18 µM		
Cc1ccc(C)c2c1CCc1cc3ccccc3nc1-2				> 100 µM		> 100 µM				> 100 µM		> 100 µM				> 100 µM		> 100 µM	> 100 µM	
